Measured values published in patent US5011831A, “Derivatives of quinolinecarboxylic acid” (Nippon Shinyaku Co. Ltd., priority 1987, dated 1991).
In brackets after ≈: the same amount, converted by molar mass. Read-outs that look alike come from different tables or passages of the source.

Columns and labels:
[1] = system: Bacillus subtilis ATCC 6633; assay: MIC, agar plate dilution method; format: cell-based
Experimental: (§1) Test Method: In accordance with a standard method by Japan Chemotherapeutic Society [Chemotherapy, 29(1), pages 76-79, 1981], agar plate dilution method was used and the MIC was measured. Thus, bouillon for measuring sensitivity was used and the bacterial liquid cultured at 37° C. for 18 hours was diluted to an extent of 10^6 CFU/ml using said medium. This was inoculated to an agar medium containing drug for measuring sensitivity using a microplanter, cultured at 37° C. for 18 hours, and MIC was measured. Ofloxacin was used for comparison/control.
(§2) The above described test was additionally conducted on the compounds of the examples described below using the same microorganisms.

[2] = system: Escherichia coli N1HJ JC-2; assay: MIC, agar plate dilution method; format: cell-based
Experimental: as §1, §2

[3] = system: Klebsiella pneumoniae NCTC 9632; assay: MIC, agar plate dilution method; format: cell-based
Experimental: as §1, §2

[4] = system: Proteus mirabilis IFO 3849; assay: MIC, agar plate dilution method; format: cell-based; settings: IFO3849, Table 1, 10^6 CFU/ml, 37° C., 18 hours
Experimental: as §1, §2

[5] = system: Pseudomonas aeruginosa IFO-3445; assay: MIC, agar plate dilution method; format: cell-based
Experimental: as §1, §2

[6] = system: Serratia marcescens IFO 3736; assay: MIC, agar plate dilution method; format: cell-based
Experimental: as §1, §2

[7] = system: Shigella flexneri 2a EW-10; assay: MIC, agar plate dilution method; format: cell-based
Experimental: as §1, §2

[8] = system: Staphylococcus aureus 209-P JC-1; assay: MIC, agar plate dilution method; format: cell-based
Experimental: as §1, §2

[9] = system: Streptococcus pneumoniae Type I; assay: MIC, agar plate dilution method; format: cell-based
Experimental: as §1, §2

[10] = system: Streptococcus pyogenes S-23; assay: MIC, agar plate dilution method; format: cell-based
Experimental: as §1, §2

E. Coli KC-14 [11] = assay: Therapeutic effect on infections in mice (Table 3); format: in vivo, ddY strain male mice; settings: E. coli KC-14, 5.1×10^4 CFU/mouse i.p.; drug orally once 2 hours after inoculation; survival after one week, Probit
Experimental: (§3) Test method: E. Coli KC-14 and P. aeruginosa E-2 were suspended in 5% mucin and 0.5 ml of the suspension was injected intraperitoneally to ddY strain male mice (body weight: ca. 20 g; four weeks age; 10 mice per group). The amount of the bacteria inoculated was 5.1×10^4 CFU/mouse for E. coli and 7.5×10^4 CFU/mouse for P. aeruginosa. Drug was given orally once after 2 hours of inoculation and, out of the survival rate after one week, ED50 was calculated by a Probit method. As to a comparison/control, ofloxacin was used.

P. aeruginosa E-2 [12] = assay: Therapeutic effect on infections in mice (Table 3); format: in vivo, ddY strain male mice; settings: P. aeruginosa E-2, 7.5×10^4 CFU/mouse i.p.; drug orally once 2 hours after inoculation; survival after one week, Probit
Experimental: as §3

E. Coli KC-14 [13] = assay: Therapeutic effect on infections in mice, similar test (Table 4); format: in vivo, ddY strain male mice; settings: E. coli KC-14, 2.5×10^5 cfu/mouse
Experimental: as §3
(§4) A similar test was conducted by inoculating E. coli KC-14 (2.5×10^5 cfu/mouse) and P. aeruginosa E-2 (1.25×10^5 cfu/mouse) and the result is given in Table 4.

P. aeruginosa E-2 [14] = assay: as above; format: in vivo, ddY strain male mice; settings: P. aeruginosa E-2, 1.25×10^5 cfu/mouse
Experimental: as §3, §4

[15] = ATCC6633, Table 1, 10^6 CFU/ml, 37° C., 18 hours
[16] = NCTC9632, Table 1, 10^6 CFU/ml, 37° C., 18 hours
[17] = IFO3445, Table 1, 10^6 CFU/ml, 37° C., 18 hours
[18] = IFO3736, Table 1, 10^6 CFU/ml, 37° C., 18 hours
[19] = 2AEW10, Table 1, 10^6 CFU/ml, 37° C., 18 hours
[20] = Table 1, 10^6 CFU/ml, 37° C., 18 hours
[21] = S23, Table 1, 10^6 CFU/ml, 37° C., 18 hours
[22] = ATCC6633, 18 h, Table 2, same microorganisms as Table 1
[23] = N1HJJC2, 18 h, Table 2, same microorganisms as Table 1, read-out: MIC
[24] = NCTC9632, 18 h, Table 2, same microorganisms as Table 1
[25] = IFO3445, 18 h, Table 2, same microorganisms as Table 1
[26] = IFO3736, 18 h, Table 2, same microorganisms as Table 1
[27] = 2AEW10, 18 h, Table 2, same microorganisms as Table 1
[28] = 18 h, Table 2, same microorganisms as Table 1

| Compound | ED50 (E. Coli KC-14 [11]) | ED50 (P. aeruginosa E-2 [12]) | ED50 (E. Coli KC-14 [13]) | ED50 (P. aeruginosa E-2 [14]) | MIC [1, 22] | MIC [2, 23] | MIC [3, 24] | MIC [5, 25] | MIC [6, 26] | MIC [7, 27] | MIC [8, 28] | further results |
| --- | --- | --- | --- | --- | --- | --- | --- | --- | --- | --- | --- | --- |
| CC1Sc2c(C(=O)O)c(=O)c3cc(F)c(N4CCNCC4)c(F)c3n21 (centres unmarked) [Example 2, 6,8-Difluoro-1-methyl-4-oxo-7-(1-piperazinyl)-4H-[1,3]thiazeto[3,2-a]quinoline-3-carboxylic acid] | 0.0078 mg/mouse | 0.154 mg/mouse | 0.013 mg/mouse | 0.156 mg/mouse | – | – | – | – | – | – | – | MIC [1, 15]: 0.05 µg/mL (≈ 0.136 µM); MIC ([2]; N1HJJC2, 18 h): 0.0125 µg/mL (≈ 0.034 µM); MIC [3, 16]: 0.0125 µg/mL (≈ 0.034 µM); MIC [4]: 0.025 µg/mL (≈ 0.068 µM); MIC [5, 17]: 0.1 µg/mL (≈ 0.272 µM); MIC [6, 18]: 0.1 µg/mL (≈ 0.272 µM); MIC [7, 19]: ≤ 0.00625 µg/mL; MIC [8, 20]: 0.1 µg/mL (≈ 0.272 µM); MIC [9, 20]: 0.39 µg/mL (≈ 1.06 µM); MIC [10, 21]: 0.39 µg/mL (≈ 1.06 µM) |
| O=C(O)c1c2n(c3c(F)c(N4CCNCC4)c(F)cc3c1=O)C(c1ccccc1)S2 (centres unmarked) [Example 21, 6,8-Difluoro-4-oxo-1-phenyl-7-(1-piperazinyl)-4H-[1,3]thiazeto[3,2-a]quinoline-3-carboxylic acid] | – | – | – | – | 0.1 µg/mL (≈ 0.233 µM) | 0.1 µg/mL (≈ 0.233 µM) | ≤ 0.00625 µg/mL | 0.39 µg/mL (≈ 0.908 µM) | 1.56 µg/mL (≈ 3.63 µM) | 0.05 µg/mL (≈ 0.116 µM) | 0.2 µg/mL (≈ 0.466 µM) | – |
| CC1Sc2c(C(=O)O)c(=O)c3cc(F)c(N4CCN(C)CC4)c(F)c3n21 (centres unmarked) [Example 4, 6,8-Difluoro-1-methyl-7-(4-methyl-1-piperazinyl)-4-oxo-[1,3]thiazeto[3,2-a]quinoline-3-carboxylic acid] | – | – | 0.011 mg/mouse | 0.177 mg/mouse | 0.05 µg/mL (≈ 0.131 µM) | 0.05 µg/mL (≈ 0.131 µM) | 0.025 µg/mL (≈ 0.0655 µM) | 0.2 µg/mL (≈ 0.524 µM) | 0.2 µg/mL (≈ 0.524 µM) | 0.0125 µg/mL (≈ 0.0328 µM) | 0.2 µg/mL (≈ 0.524 µM) | MIC [9, 28]: 0.39 µg/mL (≈ 1.02 µM); MIC ([10]; S23, 18 h, Table 2, same microorganisms as Table 1): 0.39 µg/mL (≈ 1.02 µM) |
| CCOC(=O)c1c2n(c3c(F)c(N4CCNCC4)c(F)cc3c1=O)C(C)S2 (centres unmarked) [Example 1, Ethyl 6,8-difluoro-1-methyl-4-oxo-7-(1-piperazinyl)-4H-[1,3]thiazeto[3,2-a]quinoline-3-carboxyate] | 0.0046 mg/mouse | 0.09 mg/mouse | – | – | – | – | – | – | – | – | – | – |
| O=C(O)c1c2n(c3c(F)c(N4CCNCC4)c(F)cc3c1=O)CS2 [Example 5, 6,8-Difluoro-4-oxo-7-(1-piperazinyl)-4-oxo-4H-[1,3]thiazeto[3,2-a]quinoline-3-carboxylic acid] | – | – | – | – | 0.1 µg/mL (≈ 0.283 µM) | 0.025 µg/mL (≈ 0.0708 µM) | 0.025 µg/mL (≈ 0.0708 µM) | 0.2 µg/mL (≈ 0.566 µM) | 0.05 µg/mL (≈ 0.142 µM) | 0.0125 µg/mL (≈ 0.0354 µM) | 0.1 µg/mL (≈ 0.283 µM) | – |
| CC1COc2c(N3CCN(C)CC3)c(F)cc3c(=O)c(C(=O)O)cn1c23 (racemic) [Ofloxacin, ofloxacin, reference compound] | 0.011 mg/mouse | 0.692 mg/mouse | 0.052 mg/mouse | 0.521 mg/mouse | – | – | – | – | – | – | – | MIC [1, 15]: 0.1 µg/mL (≈ 0.277 µM); MIC ([2]; N1HJJC2, Table 1, 10^6 CFU/ml, 37° C., 18 hours, read-out: MIC): 0.1 µg/mL (≈ 0.277 µM); MIC [3, 16]: 0.05 µg/mL (≈ 0.138 µM); MIC [4]: 0.39 µg/mL (≈ 1.08 µM); MIC [5, 17]: 1.56 µg/mL (≈ 4.32 µM); MIC [6, 18]: 0.78 µg/mL (≈ 2.16 µM); MIC [7, 19]: 0.025 µg/mL (≈ 0.0692 µM); MIC [8, 20]: 0.39 µg/mL (≈ 1.08 µM); MIC [9, 20]: 1.56 µg/mL (≈ 4.32 µM); MIC [10, 21]: 1.56 µg/mL (≈ 4.32 µM) |
| CCOC(=O)c1c2n(c3c(F)c(N4CCNCC4)c(F)cc3c1=O)C(c1ccc(F)cc1)S2 (centres unmarked) [Example 25, Ethyl 6,8-difluoro-1-(4-fluorophenyl)-4-oxo-7-(1-piperazinyl)-4H-[1,3]thiazeto[3,2-a]quinoline-3-carboxylate] | – | – | – | – | 0.1 µg/mL (≈ 0.21 µM) | 0.1 µg/mL (≈ 0.21 µM) | – | 0.39 µg/mL (≈ 0.82 µM) | 1.56 µg/mL (≈ 3.28 µM) | 0.05 µg/mL (≈ 0.105 µM) | 0.2 µg/mL (≈ 0.421 µM) | – |
| NC1CCN(c2c(F)cc3c(=O)c(C(=O)O)c4n(c3c2F)CS4)C1 (centres unmarked) [Example 9, 7-(3-Amino-1-pyrrolidinyl)-6,8-difluoro-4-oxo-4H-[1,3]thiazeto[3,2-a]quinoline-3-carboxylic acid] | – | – | – | – | 0.1 µg/mL (≈ 0.283 µM) | 0.0125 µg/mL (≈ 0.0354 µM) | 0.0125 µg/mL (≈ 0.0354 µM) | 0.0125 µg/mL (≈ 0.0354 µM) | 0.1 µg/mL (≈ 0.283 µM) | ≤ 0.00625 µg/mL | 0.025 µg/mL (≈ 0.0708 µM) | – |
| CN1CCN(c2c(F)cc3c(=O)c(C(=O)O)c4n(c3c2F)CS4)CC1 [Example 7, 6,8-Difluoro-7-(4-methyl-1-piperazinyl)-4-oxo-4H-[1,3]thiazeto[3,2-a]quinoline-3-carboxylic acid] | – | – | 0.014 mg/mouse | 0.263 mg/mouse | 0.05 µg/mL (≈ 0.136 µM) | 0.05 µg/mL (≈ 0.136 µM) | 0.0125 µg/mL (≈ 0.034 µM) | 0.39 µg/mL (≈ 1.06 µM) | 0.1 µg/mL (≈ 0.272 µM) | 0.025 µg/mL (≈ 0.068 µM) | 0.2 µg/mL (≈ 0.544 µM) | – |
